Starred links: 1 amine or outer side, 2 acyl side, 3 side chain; linkers in the order of their positions; H or OH if unused. Positions of bridges follow the written chain, without caps; N, C: chain ends. Non-standard residues stand in square brackets, D forms with d. Residues, ends and D or L forms follow the SMILES beside them. Groups on a side chain read outwards from the residue. *: point of attachment. C18 diacid = O=C(O)CCCCCCCCCCCCCCCCC(=O)*; Dip = N[C@H](C(=O)O)C(c1ccccc1)c1ccccc1; γGlu = O=C(O)[C@H](CCC(=O)[*:2])N[*:1]; Palmitoyl = CCCCCCCCCCCCCCCC(=O)*; β3hF = N[C@H](CC(=O)O)Cc1ccccc1; dPen = CC(C)(S)[C@@H](N)C(=O)O; NMeK = CN[C@@H](CCCCN)C(=O)O; Pen = CC(C)(S)[C@H](N)C(=O)O; dNMeK = CN[C@H](CCCCN)C(=O)O; Isovaleryl = CC(C)CC(=O)*; hCys = N[C@@H](CCS)C(=O)O; Dap = NC[C@H](N)C(=O)O; AEEA = NCCOCCOCC(=O)O; Ahx = NCCCCCC(=O)O

One experiment deals with T1, ferroportin (Homo sapiens, UniProt Q9NP59).
T1 sequence (Q9NP59 1-571): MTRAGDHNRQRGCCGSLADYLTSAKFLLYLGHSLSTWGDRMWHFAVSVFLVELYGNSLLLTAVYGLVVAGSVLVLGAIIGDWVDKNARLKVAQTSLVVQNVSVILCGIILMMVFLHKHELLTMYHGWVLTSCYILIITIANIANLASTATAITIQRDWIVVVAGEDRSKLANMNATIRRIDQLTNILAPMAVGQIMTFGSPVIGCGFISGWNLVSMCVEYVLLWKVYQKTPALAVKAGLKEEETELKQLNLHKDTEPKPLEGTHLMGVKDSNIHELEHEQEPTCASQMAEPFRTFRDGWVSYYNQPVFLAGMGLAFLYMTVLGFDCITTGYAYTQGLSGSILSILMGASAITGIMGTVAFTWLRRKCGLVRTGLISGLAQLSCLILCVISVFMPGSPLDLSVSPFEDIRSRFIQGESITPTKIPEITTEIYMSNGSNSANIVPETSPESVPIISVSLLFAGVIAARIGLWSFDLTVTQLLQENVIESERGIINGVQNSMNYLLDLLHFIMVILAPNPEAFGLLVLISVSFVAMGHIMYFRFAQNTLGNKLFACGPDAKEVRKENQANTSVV
Briefly: FPN activity assay: ferroportin-GFP internalization/degradation in HEK293 cells. The experiment is classed as cell-based. The arrangement: expressed in transfected cells. To be noted: Table 6D; ferroportin-GFP internalization/degradation, at least 18 hours incubation; read-out: FPN IC50. The method, then: Following internalization, the ferroporin protein is degraded.
A retro inverse peptide is a peptide with a reversed sequence in all D amino acids. An example is that Hy-Glu-Thr-His-NH2 becomes Hy-DHis-DThr-DGlu-NH2. The EC50 of these reference compounds for ferroportin internalization/degradation was determined according to the FPN activity assay described above. These peptides served as control standards.
On to `CCCCCCCCCCCCCCCC(=O)NCC[N+](C)(C)CC(=O)NCCCC[C@H](NC(=O)[C@@H]1CSSC[C@H](NC(=O)[C@H](CCC(=O)O)NC(=O)CC(C)C)C(=O)N[C@@H](Cc2c[nH]cn2)C(=O)N[C@@H](C(c2ccccc2)c2ccccc2)C(=O)N1)C(=O)NCCCCC` [compound 124], for which the DC50 was 100 to 500 nM.

In the case of `CCCCCCCCCCCCCCCC(=O)NCC[N+](C)(C)CC(=O)NCCCC[C@H](NC(=O)[C@@H]1CSSC[C@H](NC(=O)[C@H](CCC(=O)OC)NC(=O)CC(C)C)C(=O)N[C@@H](Cc2c[nH]cn2)C(=O)N[C@@H](C(c2ccccc2)c2ccccc2)C(=O)N1)C(=O)NCCCCC` [compound 123], the DC50 is above 500 nM.

Still in this experiment, the particulars now being: ferroportin-GFP HEK293 cells, at least 18 hours; read-out: FPN IC50.
As to `CCCCCCCCCCCCCCCC(=O)NCCCCCC(=O)NCCCC[C@H](NC(=O)[C@@H](NC(=O)[C@@H]1CSSC[C@H](NC(=O)CC(C)C)C(=O)N[C@@H](CCC(=O)O)C(=O)N[C@@H]([C@@H](C)O)C(=O)N[C@@H](Cc2c[nH]cn2)C(=O)N[C@@H](C(c2ccccc2)c2ccccc2)C(=O)N2CCC[C@H]2C(=O)N1)[C@@H](C)CC)C(=O)N[C@H](CC(N)=O)Cc1ccccc1` [Compd 10] (Isovaleryl-CETH[Dip]PCIK([Ahx-Palmitoyl])[β3hF]-NH2; disulfide 1-7), the DC50 fell in the range of 100 to 500 nM. As for `CCCCCCCCCCCCCCCC(=O)NCCCCCC(=O)NCCCC[C@H](NC(=O)C[C@H](Cc1ccccc1)NC(=O)[C@@H]1CSSC[C@H](NC(=O)[C@@H]2CCCN2C(=O)[C@@H](NC(=O)[C@H](Cc2c[nH]cn2)NC(=O)[C@@H](NC(=O)[C@H](CCC(=O)O)NC(=O)CC(C)C)[C@@H](C)O)C(c2ccccc2)c2ccccc2)C(=O)N[C@@H]([C@@H](C)CC)C(=O)N1)C(=O)N[C@H](CCCCN)C(N)=O` [Compd 8] (Isovaleryl-ETH[Dip]PCIC[β3hF]K([Ahx-Palmitoyl])[dK]-NH2; disulfide 6-8), the DC50 lay within 100 to 500 nM. With `CCCCCCCCCCCCCCCC(=O)NCCCCCC(=O)NCCCC[C@H](NC(=O)[C@@H](NC(=O)[C@@H]1CCSSCC[C@H](N)C(=O)N[C@@H](C(C)C)C(=O)N[C@@H](CCC(=O)O)C(=O)N[C@@H]([C@@H](C)O)C(=O)N[C@@H](Cc2c[nH]cn2)C(=O)N[C@@H](C(c2ccccc2)c2ccccc2)C(=O)N2CCC[C@H]2C(=O)N1)[C@@H](C)CC)C(=O)N[C@H](CC(N)=O)Cc1ccccc1` [Compd 16] (H-[hCys]VETH[Dip]P[hCys]IK([Ahx-Palmitoyl])[β3hF]-NH2; disulfide 1-8), the DC50 is above 500 nM. With `CC[C@H](C)[C@H](NC(=O)[C@@H]1CSSC[C@H](NC(=O)[C@H](Cc2c[nH]cn2)NC(=O)[C@@H](NC(=O)[C@H](CCC(=O)O)NC(=O)CC(C)C)[C@@H](C)O)C(=O)N2CCC[C@H]2C(=O)N1)C(=O)N[C@@H](CCCCNC(=O)COCCOCCNC(=O)COCCOCCNC(=O)CC[C@H](NC(=O)CCCCCCCCCCCCCCCCC(=O)O)C(=O)O)C(=O)N[C@H](CC(=O)N[C@H](CCCCN)C(N)=O)Cc1ccccc1` [Compd 29] (Isovaleryl-ETHCPCIK([AEEA-AEEA-γGlu-C18 diacid])[β3hF][dK]-NH2; disulfide 4-6), the DC50 fell in the range of 100 to 500 nM. Regarding `CCCCCCCCCCCCCCCC(=O)NCCCCCC(=O)NCCCC[C@H](NC(=O)[C@@H](NC(=O)[C@@H]1CSSC(C)(C)[C@H](N)C(=O)N[C@@H](CCC(=O)O)C(=O)N[C@@H]([C@@H](C)O)C(=O)N[C@@H](Cc2c[nH]cn2)C(=O)N[C@@H](C(c2ccccc2)c2ccccc2)C(=O)N2CCC[C@H]2C(=O)N1)[C@@H](C)CC)C(=O)N[C@H](CC(N)=O)Cc1ccccc1` [Compd 11] (H-[Pen]ETH[Dip]PCIK([Ahx-Palmitoyl])[β3hF]-NH2; disulfide 1-7), the DC50 was above 500 nM. As to `CCCCCCCCCCCCCCCC(=O)NCCCCCC(=O)NCCCC[C@H](NC(=O)C[C@H](Cc1ccccc1)NC(=O)[C@@H]1CSSC[C@@H](NC(=O)CC(C)C)C(=O)N[C@@H]([C@@H](C)O)C(=O)N[C@@H](Cc2c[nH]cn2)C(=O)N[C@@H](C(c2ccccc2)c2ccccc2)C(=O)N2CCC[C@H]2C(=O)N[C@@H](C)C(=O)N[C@@H]([C@@H](C)CC)C(=O)N1)C(=O)N[C@H](CCCCN)C(N)=O` [compound 107] (Isovaleryl-[dC]TH[Dip]PAIC[β3hF]K([Ahx-Palmitoyl])[dK]-NH2; disulfide 1-8), the DC50 lay in the range of 10 to 100 nM. The same measure, in the same setting: under `CCCCCCCCCCCCCCCC(=O)NCCCCCC(=O)NCCCC[C@H](NC(=O)C[C@H](Cc1ccccc1)NC(=O)[C@@H]1NC(=O)[C@H]([C@@H](C)CC)NC(=O)[C@H](C)NC(=O)[C@@H]2CCCN2C(=O)[C@H](C(c2ccccc2)c2ccccc2)NC(=O)[C@H](Cc2c[nH]cn2)NC(=O)[C@H]([C@@H](C)O)NC(=O)[C@@H](NC(=O)CC(C)C)CSSC1(C)C)C(=O)N[C@H](CCCCN)C(N)=O` [compound 104] (Isovaleryl-CTH[Dip]PAI[dPen][β3hF]K([Ahx-Palmitoyl])[dK]-NH2; disulfide 1-8) stands 10 to 100 nM; under `CC[C@H](C)[C@H](NC(=O)[C@@H]1CSSC[C@H](NC(=O)[C@@H](NC(=O)[C@H](Cc2c[nH]cn2)NC(=O)[C@@H](NC(=O)[C@H](CCC(=O)O)NC(=O)CC(C)C)[C@@H](C)O)C(c2ccccc2)c2ccccc2)C(=O)N1)C(=O)N[C@H](CCCCN)C(=O)N[C@H](CC(=O)N[C@@H](CCCCNC(=O)COCCOCCNC(=O)COCCOCCNC(=O)CC[C@H](NC(=O)CCCCCCCCCCCCCCCCC(=O)O)C(=O)O)C(=O)N[C@H](CCCCN)C(N)=O)Cc1ccccc1` [Compd 34] (Isovaleryl-ETH[Dip]CCI[dK][β3hF]K([AEEA-AEEA-γGlu-C18 diacid])[dK]-NH2; disulfide 5-6), 100 to 500 nM; under `CCCCCCCCCCCCCCCC(=O)NCCCCCC(=O)NCCCC[C@H](NC(=O)[C@@H](NC(=O)[C@@H]1CSSC[C@H](NC(C)=O)C(=O)N[C@@H](CCC(=O)O)C(=O)N[C@@H]([C@@H](C)O)C(=O)N[C@@H](Cc2c[nH]cn2)C(=O)N[C@@H](C(c2ccccc2)c2ccccc2)C(=O)N2CCC[C@H]2C(=O)N1)[C@@H](C)CC)C(=O)N[C@H](CC(N)=O)Cc1ccccc1` [Compd 9] (Ac-CETH[Dip]PCIK([Ahx-Palmitoyl])[β3hF]-NH2; disulfide 1-7), 100 to 500 nM.

Regarding `CCCCCCCCCCCCCCCC(=O)NCCCCCC(=O)NCCCC[C@H](NC(=O)C[C@H](Cc1ccccc1)NC(=O)[C@@H]1CSSCC[C@H](NC(=O)CC(C)C)C(=O)N[C@@H]([C@@H](C)O)C(=O)N[C@@H](Cc2cnc[nH]2)C(=O)N[C@@H](C(c2ccccc2)c2ccccc2)C(=O)N2CCC[C@H]2C(=O)N[C@@H](C)C(=O)N[C@@H]([C@@H](C)CC)C(=O)N1)C(=O)N[C@H](CCCCN)C(N)=O` [compound 110] (Isovaleryl-[hCys]TH[Dip]PAIC[β3hF]K([Ahx-Palmitoyl])[dK]-NH2; disulfide 1-8), the DC50 fell in the range of 1 to 10 nM. For `CC(C)CC(=O)N[C@@H](CCC(=O)O)C(=O)N[C@H](C(=O)N[C@@H](Cc1c[nH]cn1)C(=O)N[C@H](C(=O)N1CCC[C@H]1C(=O)N[C@H]1CSSC[C@@H](C(=O)N[C@H](CCCCN)C(=O)N[C@H](CC(=O)N[C@@H](CCCCNC(=O)COCCOCCNC(=O)COCCOCCNC(=O)CC[C@H](NC(=O)CCCCCCCCCCCCCCCCC(=O)O)C(=O)O)C(=O)N[C@H](CCCCN)C(N)=O)Cc2ccccc2)NC1=O)C(c1ccccc1)c1ccccc1)[C@@H](C)O` [Compd 28] (Isovaleryl-ETH[Dip]PCC[dK][β3hF]K([AEEA-AEEA-γGlu-C18 diacid])[dK]-NH2; disulfide 6-7), the DC50 lay in the range of 100 to 500 nM. On to `CCCCCCCCCCCCCCCC(=O)NCCCCCC(=O)NCCCC[C@H](NC(=O)[C@@H](NC(=O)[C@@H]1CCSSCC[C@H](NC(C)=O)C(=O)N[C@@H](CCC(=O)O)C(=O)N[C@@H]([C@@H](C)O)C(=O)N[C@@H](Cc2c[nH]cn2)C(=O)N[C@@H](C(c2ccccc2)c2ccccc2)C(=O)N2CCC[C@H]2C(=O)N1)[C@@H](C)CC)C(=O)N[C@H](CC(N)=O)Cc1ccccc1` [Compd 14] (Ac-[hCys]ETH[Dip]P[hCys]IK([Ahx-Palmitoyl])[β3hF]-NH2; disulfide 1-7), for which the DC50 was 100 to 500 nM.

Still in this experiment, the particulars now being: ferroportin-GFP internalization/degradation, HEK293 cells; Table 6E; read-out: FPN IC50.
For `CC(C)CC(=O)N[C@@H](CCC(=O)O)C(=O)N[C@H](C(=O)N[C@@H](Cc1c[nH]cn1)C(=O)N[C@H](C(=O)N1CCC[C@H]1C(=O)N[C@@H]1C(=O)N[C@H](C(=O)N[C@@H](CCCCNC(=O)COCCOCCNC(=O)COCCOCCNC(=O)[C@H](CN)NC(=O)CCCCCCCCCCCCCCCCC(=O)O)C(=O)N[C@H](CC(=O)N[C@H](CCCCN)C(N)=O)Cc2ccccc2)C(C)(C)SSC1(C)C)C(c1ccccc1)c1ccccc1)[C@@H](C)O` [compound 274] (Isovaleryl-ETH[Dip]P[Pen][Pen]K([AEEA-AEEA-Dap-C18 diacid])[β3hF][dK]-NH2; disulfide 6-7), the DC50 was 10 to 100 nM. Regarding `CC(=O)NCCCC[C@H](C(N)=O)N(C)C(=O)C[C@H](Cc1ccccc1)NC(=O)[C@H](CCCCNC(=O)COCCOCCNC(=O)COCCOCCNC(=O)[C@H](CN)NC(=O)CCCCCCCCCCCCCCCCC(=O)O)N(C)C(=O)[C@@H]1CSSC[C@H](NC(=O)[C@@H]2CCCN2C(=O)[C@@H](NC(=O)[C@H](Cc2c[nH]cn2)NC(=O)[C@@H](NC(=O)[C@H](CCC(=O)O)NC(=O)CC(C)C)[C@@H](C)O)C(c2ccccc2)c2ccccc2)C(=O)N1` [compound 267] (Isovaleryl-ETH[Dip]PCC[NMeK]([AEEA-AEEA-Dap-C18 diacid])[β3hF][dNMeK](Ac)-NH2; disulfide 6-7), the DC50 lay in the range of 100 to 500 nM.
